Patent US9102752B2, “Peptide vaccine for prevention and immunotherapy of dementia of the Alzheimer's type” (United Biomedical, Inc., priority 2013, dated 2015)

Assays:
[1] = test system: anti-Aβ antibodies in macaque antisera; experiment: Specificity analysis (10-mer peptide ELISA) of antisera from Cynomolgus macaques; assay type: binding
[2] = test system: anti-Aβ antibodies in sera of vaccinated patients; experiment: Epitope mapping, competitive binding inhibition EIA with patient sera (10-mer peptides, IC50); set-up: species or system human; Epitope mapping, fine specificity analysis, serum of subject P210: unit not given here; conditions: for Epitope mapping, fine specificity analysis, serum of subject P101: serum 16 wpi of vaccinated patient P101; for Epitope mapping, fine specificity analysis, serum of subject P102: serum 16 wpi of vaccinated patient P102; for Epitope mapping, fine specificity analysis, serum of subject P103: serum 16 wpi of vaccinated patient P103; for Epitope mapping, fine specificity analysis, serum of subject P104: serum 16 wpi of vaccinated patient P104; for Epitope mapping, fine specificity analysis, serum of subject P105: serum 16 wpi of vaccinated patient P105; for Epitope mapping, fine specificity analysis, serum of subject P106: serum 16 wpi of vaccinated patient P106; for Epitope mapping, fine specificity analysis, serum of subject P107: serum 16 wpi of vaccinated patient P107; for Epitope mapping, fine specificity analysis, serum of subject P108: serum 16 wpi of vaccinated patient P108; for Epitope mapping, fine specificity analysis, serum of subject P109: serum 16 wpi of vaccinated patient P109; for Epitope mapping, fine specificity analysis, serum of subject P201: serum 16 wpi of vaccinated patient P201; for Epitope mapping, fine specificity analysis, serum of subject P202: serum 16 wpi of vaccinated patient P202; for Epitope mapping, fine specificity analysis, serum of subject P203: serum 16 wpi of vaccinated patient P203; for Epitope mapping, fine specificity analysis, serum of subject P204: serum 16 wpi of vaccinated patient P204; for Epitope mapping, fine specificity analysis, serum of subject P205: serum 16 wpi of vaccinated patient P205; for Epitope mapping, fine specificity analysis, serum of subject P206: serum 16 wpi of vaccinated patient P206; for Epitope mapping, fine specificity analysis, serum of subject P207: serum 16 wpi of vaccinated patient P207; for Epitope mapping, fine specificity analysis, serum of subject P208: serum 16 wpi of vaccinated patient P208; for Epitope mapping, fine specificity analysis, serum of subject P209: serum 16 wpi of vaccinated patient P209; for Epitope mapping, fine specificity analysis, serum of subject P210: serum 16 wpi of vaccinated patient P210
[3] = antisera of macaques given UBI AD Vaccine 150 μg/dose, 9 WPI
[4] = antisera of macaques given UBI AD Vaccine 150 μg/dose, 15 WPI
[5] = antisera of macaques given UBI AD Vaccine 750 μg/dose, 9 WPI
[6] = antisera of macaques given UBI AD Vaccine 750 μg/dose, 15 WPI

Row | Substance | Reactivity of antisera with peptide (specificity analysis ELISA) [1, 3] | Reactivity of antisera with peptide (specificity analysis ELISA) [1, 4] | Reactivity of antisera with peptide (specificity analysis ELISA) [1, 5] | Reactivity of antisera with peptide (specificity analysis ELISA) [1, 6] | Epitope mapping, fine specificity analysis, serum of subject P101 [2] | Epitope mapping, fine specificity analysis, serum of subject P102 [2] | Epitope mapping, fine specificity analysis, serum of subject P103 [2] | Epitope mapping, fine specificity analysis, serum of subject P104 [2] | Epitope mapping, fine specificity analysis, serum of subject P105 [2] | Epitope mapping, fine specificity analysis, serum of subject P106 [2] | Epitope mapping, fine specificity analysis, serum of subject P107 [2] | Epitope mapping, fine specificity analysis, serum of subject P108 [2] | Epitope mapping, fine specificity analysis, serum of subject P109 [2] | Epitope mapping, fine specificity analysis, serum of subject P201 [2] | Epitope mapping, fine specificity analysis, serum of subject P202 [2] | Epitope mapping, fine specificity analysis, serum of subject P203 [2] | Epitope mapping, fine specificity analysis, serum of subject P204 [2] | Epitope mapping, fine specificity analysis, serum of subject P205 [2] | Epitope mapping, fine specificity analysis, serum of subject P206 [2] | Epitope mapping, fine specificity analysis, serum of subject P207 [2] | other results
1 | 15 (KMDAEFRHDS; PEPTIDE (1)..(10) Abeta -2-8 or APP 770(K670-S679); listed as Homo sapiens) [compound 15] | 0.065 | 0.031 | 0.069 | 0.062 | 94 | 0 | 0 | 0 | 0 | 0 | 0 | 0 | 0 | 2 | 7 | 0 | 12 | 0 | 0 | 0 | Epitope mapping, fine specificity analysis, serum of subject P208 [2]: 0; Epitope mapping, fine specificity analysis, serum of subject P209 [2]: 0; Epitope mapping, fine specificity analysis, serum of subject P210 [2]: 52
2 | 16 (MDAEFRHDSG; PEPTIDE (1)..(10) Abeta -1-9 or APP 770(M671-G680); listed as Homo sapiens) [compound 16] | 0.056 | 0.061 | 0.051 | 0.056 | 420 | 12 | 0 | 0 | 0 | 0 | 0 | 0 | 0 | 9 | 116 | 0 | 17 | 0 | 0 | 2 | Epitope mapping, fine specificity analysis, serum of subject P208 [2]: 6; Epitope mapping, fine specificity analysis, serum of subject P209 [2]: 0; Epitope mapping, fine specificity analysis, serum of subject P210 [2]: 121
3 | 17 (AEFRHDSGYE; PEPTIDE (1)..(10) Abeta 2-11 or APP 770(A673-E682); listed as Homo sapiens) [compound 17] | 0.058 | 0.059 | 0.054 | 0.060 | 2 | 0 | 0 | 0 | 0 | 0 | 0 | 0 | 0 | 3 | 0 | 0 | 0 | 0 | 0 | 0 | Epitope mapping, fine specificity analysis, serum of subject P208 [2]: 0; Epitope mapping, fine specificity analysis, serum of subject P209 [2]: 0; Epitope mapping, fine specificity analysis, serum of subject P210 [2]: 0
